Some test systems named below: 786-0; CCRF-CEM; COLO 205; HCT-15; HOP-92; Hs-578T; IGROV-1; K562; KM12; M14; MDA-MB-231; MDA-MB-435; NCI-H23; OVCAR-5; OVCAR-8; SF-268; SF-295; SN12C; UACC-257; UACC-62.
Assay in all cases: NCI tumour cell line growth inhibition, 48 h

SMILES strings stand for the structures.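 The compound was tested at five concentrations on cells cultured in 96-well plates, with a 48-hour exposure period. GI50 is the concentration that inhibits growth by half.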 Activity calls are given as the source filed them. Rule as the data show it: active = GI50 up to about 1.1 µM and inactive = higher. Where only a bound is given, the exact number is not on record here.

Turning to `Clc1ccc2c(c1)N(CCCN1CCCC13CCCCC3)c1ccccc1S2`, the GI50 with 786-0 was 10.8 µM (inactive); in the assay on CCRF-CEM, 4.06 µM (inactive); with COLO 205, > 39.2 µM (inactive); in the assay with HCT-15 it was 17.1 µM; with HOP-92, 10.4 µM (inactive); in the assay with Hs-578T it was 13.5 µM (inactive). The GI50 in the assay with IGROV-1 is 12.3 µM (inactive); with K562, 3.95 µM (inactive); with KM12, 13.8 µM (inactive); with M14, 13.6 µM (inactive); in the assay with MDA-MB-231, 8.85 µM (inactive); in the assay with MDA-MB-435 it was 14.2 µM (inactive). For the same compound, the GI50 is 16.1 µM (inactive) in the assay with NCI-H23; 17.3 µM (inactive) in the assay on OVCAR-5; 16.5 µM (inactive) with OVCAR-8; 18.8 µM (inactive) in the assay with SF-268; 15.6 µM (inactive) in the assay with SF-295; 13.4 µM (inactive) in the assay on SN12C. Also, the GI50 in the assay on UACC-257 was 10.3 µM (inactive); in the assay on UACC-62, 16.6 µM (inactive).

`CCCCCc1c(CCCC)c(=O)[nH]c2cc(CNCC(OC)OC)ccc12`: the GI50 with 786-0 was 4.47 µM (inactive); in the assay on CCRF-CEM it was 4.05 µM (inactive); with COLO 205 it was 2.41 µM (inactive); in the assay with HCT-15, 9.53 µM; in the assay with HOP-92, 7.41 µM (inactive); in the assay with Hs-578T, 18.5 µM (inactive). Further, the GI50 was 14.9 µM (inactive) in the assay on IGROV-1; 1.9 µM (inactive) with K562; 11.7 µM (inactive) in the assay with KM12; 2.81 µM (inactive) in the assay with M14; 15.2 µM (inactive) in the assay with MDA-MB-231; 11.4 µM (inactive) in the assay on MDA-MB-435. Also, the GI50 with NCI-H23 is 17.4 µM (inactive); in the assay on OVCAR-5, 14.2 µM (inactive); with OVCAR-8 it was 16.3 µM (inactive); with SF-268, 16.7 µM (inactive); with SF-295 it was 17.2 µM (inactive); in the assay with SN12C, 14.2 µM (inactive). In addition, the GI50 in the assay on UACC-257 was 4.92 µM (inactive); with UACC-62 it was 5.85 µM (inactive).

Turning to `CCOC(=O)N1CCN(c2ccc3ccc(N)nc3n2)CC1`, the GI50 was > 100 µM (inactive) with 786-0; 50.1 µM (inactive) with CCRF-CEM; > 100 µM (inactive) in the assay with COLO 205; greater than 100 µM in the assay with HCT-15; > 100 µM (inactive) in the assay with HOP-92; > 100 µM (inactive) in the assay on Hs-578T. In addition, the GI50 in the assay with IGROV-1, in the assay with K562, in the assay with KM12, in the assay on M14, in the assay with MDA-MB-231 and in the assay on MDA-MB-435 was > 100 µM (inactive) in each case. Further, the GI50 in the assay with NCI-H23, with OVCAR-5, in the assay on OVCAR-8, with SF-268, in the assay on SF-295 and in the assay with SN12C was > 100 µM (inactive) each time. Further, the GI50 with UACC-257 and in the assay with UACC-62 was > 100 µM (inactive) throughout.

Regarding `COc1ccccc1NC(=O)CC(=O)N1N=C(N2c3ccccc3Sc3ccccc32)CC1c1ccccc1` (stereo not given), the GI50 was > 100 µM (inactive) in the assay with 786-0; > 100 µM (inactive) in the assay with CCRF-CEM; > 100 µM (inactive) in the assay on COLO 205; greater than 100 µM with HCT-15; > 100 µM (inactive) with HOP-92; > 100 µM (inactive) in the assay on Hs-578T. Besides, the GI50 with IGROV-1, in the assay with K562, in the assay on KM12, in the assay with M14, in the assay with MDA-MB-231 and with MDA-MB-435 was > 100 µM (inactive) throughout. Further, the GI50 with NCI-H23, with OVCAR-5, in the assay with OVCAR-8, with SF-268, with SF-295 and in the assay on SN12C was > 100 µM (inactive) in each case. For the same compound, the GI50 in the assay on UACC-257 and in the assay with UACC-62 was > 100 µM (inactive) each time.

For the compound `O=c1n(-c2ccc(Cl)c(Cl)c2)c(=O)n(-c2ccc(Cl)c(Cl)c2)c(=O)n1-c1ccc(Cl)c(Cl)c1`, the GI50 with 786-0 is 2.78 µM (inactive); in the assay with CCRF-CEM, 1.15 µM (inactive); in the assay with COLO 205, 0.719 µM (active); in the assay with HCT-15, 1.58 µM; with HOP-92 it was 0.0144 µM (active); in the assay on Hs-578T, 2.96 µM (inactive). Also, the GI50 with IGROV-1 was 3.21 µM (inactive); with K562, 2.06 µM (inactive); with KM12, 2.91 µM (inactive); in the assay with M14, 3.2 µM (inactive); in the assay on MDA-MB-231 it was 1.8 µM (inactive); in the assay on MDA-MB-435 it was 3.93 µM (inactive). Besides, the GI50 is 1.5 µM (inactive) with NCI-H23; 3.63 µM (inactive) with OVCAR-5; 3.54 µM (inactive) in the assay on OVCAR-8; 2.45 µM (inactive) in the assay on SF-268; 2.47 µM (inactive) with SF-295; 3.09 µM (inactive) with SN12C. The GI50 in the assay with UACC-257 is 0.736 µM (active); in the assay on UACC-62, 4.27 µM (inactive).

Turning to `O=C1C(Cl)=C(N(C(=O)c2ccccc2)C(=O)c2ccccc2)C(=O)c2ccccc21`, the GI50 with 786-0 is 14.5 µM (inactive); in the assay on CCRF-CEM it was 2.84 µM (inactive); with COLO 205, 16.1 µM (inactive); in the assay with HCT-15, 2.94 µM; in the assay on HOP-92, 13.1 µM (inactive); with Hs-578T it was 4.8 µM (inactive). In addition, the GI50 in the assay with IGROV-1 is 19.4 µM (inactive); in the assay with K562, 3.4 µM (inactive); in the assay on KM12, 3.38 µM (inactive); with M14, 14.4 µM (inactive); in the assay on MDA-MB-231, 9.71 µM (inactive); with MDA-MB-435, 12.6 µM (inactive). Besides, the GI50 is 5.42 µM (inactive) in the assay on NCI-H23; 12.2 µM (inactive) in the assay on OVCAR-5; 54 µM (inactive) in the assay with OVCAR-8; 2.48 µM (inactive) in the assay with SF-268; 28.2 µM (inactive) in the assay with SF-295; 18.3 µM (inactive) with SN12C. Also, the GI50 in the assay with UACC-257 was 14.9 µM (inactive); in the assay on UACC-62, 5.12 µM (inactive).

For the compound `CCOC(=O)C1C(=O)C=C(c2cc(C)ccc2O)CC1c1cccc(Br)c1` (stereo not given), the GI50 in the assay with 786-0 was 17.6 µM (inactive); with CCRF-CEM it was 19.4 µM (inactive); in the assay on COLO 205, 16.2 µM (inactive); in the assay with HCT-15, 3.24 µM; in the assay with HOP-92, 10.4 µM (inactive); in the assay with Hs-578T, 14.8 µM (inactive). Besides, the GI50 is 12.6 µM (inactive) in the assay on IGROV-1; 11.7 µM (inactive) in the assay with K562; 13.2 µM (inactive) in the assay with KM12; 17.4 µM (inactive) with M14; 19.6 µM (inactive) in the assay on MDA-MB-231; 2.39 µM (inactive) in the assay with MDA-MB-435. The GI50 in the assay on NCI-H23 is 17.5 µM (inactive); in the assay with OVCAR-5, 25.1 µM (inactive); in the assay with OVCAR-8, 30 µM (inactive); in the assay on SF-268, 19.5 µM (inactive); in the assay on SF-295, 13.6 µM (inactive); in the assay on SN12C, 16.9 µM (inactive). Besides, the GI50 in the assay on UACC-257 is 15.7 µM (inactive); with UACC-62 it was 14 µM (inactive).

The record behind these values is ChEMBL document CHEMBL1201862, “PubChem BioAssay data set” (2004).
